Measured values: patent US20170183306A1, “CYCLIC COMPOUNDS HAVING A 1,3 DIAMINO-FUNCTIONALITY FOR USE IN THE TREATMENT OF HIV INFECTION” (Universite Paris Descartes, priority 2014, published 2017)
Where two headings read alike, the source gives them in different places.

Key:
Type in all cases: cell-based
HeLa-p4 cells = assay: Cell viability assay (MTS) on HeLa-p4 cells
Procedure: (§1) HeLa-p4 cells are HeLa CD4 LTR-LacZ wherein LacZ expression is induced by the trans-activating protein Tat of HIV, making possible the precise quantification of HIV-1 infectivity from a single replication cycle. HeLa-CD4 cells growing exponentially at a density of 1×10^4/mL were placed in 96-well plates and infected the following day with 1 ng of HIV p24 antigen in the presence of different concentrations of compounds. The titles for a single cycle of the viruses were determined 48 hours after infection by quantifying the beta-galactosidase activity in lysates P4 by colorimetric test (CPRG, Promega) based on the cleavage of chlorophenol red-beta-D-galactopyranoside (CPRG) by beta-galactosidase. A cell viability assay measuring the absorbance at […] using the yellow tetrazolium reagent MTS [[…]] (Promega) was carried out.
(§2) For the helap4 cells experiments, the efficacy of the compounds is determined in comparison with control cells containing wild type NL4-3 virus alone (i.e. without any added compound) and is expressed as percentage of control. Then, the viral replication was increased for several compounds at the 50 and 100 μM concentrations with an absence of cytotoxic effects at the same concentrations (MTS test) (table 1).

J-Lat cells = assay: J-Lat cells, percentage of GFP-positive cells by cytometry; settings: 24 h, compound alone
Procedure: The J-Lat were grown in RPMI 1640 medium (Gibco-BRL) supplemented with 10% fetal bovine serum, 50 U/ml of penicillin, […] of streptomycin at 37 uC in a humidified 95% air/5% CO2 atmosphere. The cells were plated at 5.105 cells in a 96 well-plate. TNF ? was purchased from Immunosource. SAHA (suberoylanilide hydroxamic acid), prostratin (12-deoxyphorbol-13-acetate) and vorinostat were obtained from Sigma-Aldrich. The J-Lat cells were treated for 24 h with the different compounds alone. The cells were washed twice in PBS, re-suspended in PBS containing 4% paraformaldehyde and fixed for 30 min. Cells were next washed and re-suspended in PBS. The percentage of GFP-positive cells was measured with a LSRFortessa cytometer (Becton-Dickinson) using FACSDiva Version 6.1.3 according to the manufacturer's instructions.
The results for the J-Lat cells experiments are expressed as a percentage of the living fluorescent cells. In this model, some slight increase of viral production measured by fluorescence are quantified (table 1).

[1] = system: wild type NL4-3 virus (HIV-1) in HeLa-p4 cells; assay: HeLa-p4 single-cycle HIV-1 infectivity, beta-galactosidase CPRG test; settings: 48 hours after infection, control = NL4-3 virus alone; for activity at 50 µM / activity at 100 µM / activity at 200 µM: Human immunodeficiency virus 1, NL43, HeLaP4; for activity at 50 µM: read-out: Hela-p4 CPRG 50 μM; for activity at 100 µM: read-out: Hela-p4 CPRG 100 μM
Procedure: as §1, §2

Molecule	Hela-p4 MTS 50 μM (HeLa-p4 cells)	Hela-p4 MTS 100 μM (HeLa-p4 cells)	J-lat 50 μM (J-Lat cells)	J-lat 100 μM (J-Lat cells)	Hela-p4 CPRG 50 μM [1]	Hela-p4 CPRG 100 μM [1]	Hela-p4 MTS 50 μM (HeLa-p4 cells; 50 μM, cell viability)	Hela-p4 MTS 100 μM (HeLa-p4 cells; 100 μM, cell viability)	Hela-p4 MTS 200 μM (HeLa-p4 cells; cell viability)	activity at 50 µM [1]	activity at 100 µM [1]	activity at 200 µM [1]	Hela-p4 MTS 50 μM (HeLa-p4 cells; human, 50 μM)	Hela-p4 MTS 100 μM (HeLa-p4 cells; human, 100 μM)
1-(3,5-diaminopiperidin-1-yl)-2-(3-methoxyphenyl)ethanone [ECO02-030-C]	109	107	0.5 percentage of the living fluorescent cells	0.1 percentage of the living fluorescent cells	139 percentage of control	166 percentage of control								
1-(3,5-diaminopiperidin-1-yl)-2-(3-methoxyphenyl)ethanone [ECO02-031-C]	116	110	0.2 percentage of the living fluorescent cells	0.1 percentage of the living fluorescent cells	146 percentage of control	222 percentage of control								
COc1cccc(CCN2C[C@@H](N)C[C@@H](NS(C)(=O)=O)C2)c1 (racemic) [ECO02-073-C, rac-cis-N-(5-amino-1-(3-methoxyphenethyl)piperidin-3-yl) methanesulfonamide]			0.8 percentage of the living fluorescent cells				100	99	79	151%	205%	417%		
COc1ccc(CC(=O)N2C[C@H](N)C[C@H](N)C2)cc1OC [AB287-F1, 1-((3S,5R)-3,5-diaminopiperidin-1-yl)-2-(3,4-dimethoxyphenyl)ethanone]			0.1 percentage of the living fluorescent cells	0.4 percentage of the living fluorescent cells			103	92		137%	182%			
CC(O)c1ccc(C(=O)NC(CCCCN)C(=O)N2C[C@H](N)C[C@H](N)C2)cc1 (stereo partly drawn) [AB289-1, N-(6-amino-1-(3,5-diaminopiperidin-1-yl)-1-oxohexan-2-yl)-4-(1-hydroxyethyl)benzamide]			0 percentage of the living fluorescent cells	0.8 percentage of the living fluorescent cells			103	100	74	157%	236%	294%		
CCc1ccc(C(=O)NC(CCCCN)C(=O)N2C[C@H](N)C[C@H](N)C2)cc1 (stereo partly drawn) [AB289-2, N-(6-amino-1-(3,5-diaminopiperidin-1-yl)-1-oxohexan-2-yl)-4-ethylbenzamide]			0.1 percentage of the living fluorescent cells	0.2 percentage of the living fluorescent cells			113	101	72	154%	219%	248%		
N[C@@H]1C[C@H](N)CN(C23CC4CC(CC(C4)C2)C3)C1 [AB541, 1-(adamantan-1-yl)piperidine-3,5-diamine]			0.1 percentage of the living fluorescent cells	10.5 percentage of the living fluorescent cells						158%	157%		141	123
CC(C)N1C[C@H](N)C[C@H](N)C1 [AB542, 1-isopropylpiperidine-3,5-diamine]			0.1 percentage of the living fluorescent cells	0.7 percentage of the living fluorescent cells			100	99		113%	106%			
COc1ccc(CCN2C[C@H](N)C[C@H](N)C2)cc1OC [AB-77, (3S,5R)-1-(3,4-dimethoxyphenethyl)piperidine-3,5-diamine]			0.1 percentage of the living fluorescent cells	0.8 percentage of the living fluorescent cells			93	97	69	165%	184%	310%		
COC(=O)[C@H](Cc1ccccc1)N1C[C@H](N)C[C@H](N)C1 [AB-81, (S)-methyl 2-((3S,5R)-3,5-diaminopiperidin-1-yl)-3-phenylpropanoate]			0.1 percentage of the living fluorescent cells	0.8 percentage of the living fluorescent cells			96	94		151%	147%			
COc1ccc2[nH]cc(CCN3C[C@H](N)C[C@H](N)C3)c2c1 [AB-84, (3S,5R)-1-(2-(5-methoxy-1H-indol-3-yl)ethyl)piperidine-3,5-diamine]			0.1 percentage of the living fluorescent cells	6.9 percentage of the living fluorescent cells			62	60		112%	75%			
N[C@@H]1C[C@H](N)CN(c2ccc3[nH]ccc3c2)C1 [AB-86, (3S,5R)-1-(1H-indol-5-yl)piperidine-3,5-diamine]			0.1 percentage of the living fluorescent cells	2.6 percentage of the living fluorescent cells			81	74		80%	66%			
COc1ccc(CCN2C[C@H](N3C[C@H](N)C[C@H](N)C3)C[C@H](N3C[C@H](N)C[C@H](N)C3)C2)cc1OC [AB-103, (3S,3′R,3″S,5R,5′S,5″R)-1′-(3,4-dimethoxyphenethyl)-[1,3′:5′,1″-terpiperidine]-3,3″,5,5″-tetraamine]			0.2 percentage of the living fluorescent cells	0.4 percentage of the living fluorescent cells			83	84		125%	143%			
COC(=O)[C@@H](Cc1ccccc1)N1C[C@H](N)C[C@H](N)C1 [AB-109 F3, (R)-methyl 2-((3S,5R)-3,5-diaminopiperidin-1-yl)-3-phenylpropanoate]			0.1 percentage of the living fluorescent cells	4.9 percentage of the living fluorescent cells			110	95	75	164%	153%	289%		
COc1cc(N2C[C@H](N)C[C@H](N)C2)cc(OC)c1OC [AB-116, (3S,5R)-1-(3,4,5-trimethoxyphenyl)piperidine-3,5-diamine]			0 percentage of the living fluorescent cells	0.5 percentage of the living fluorescent cells			96	97	86	135%	172%	248%		
N[C@@H]1C[C@H](N)CN(c2ccc(NC(=O)c3ccccc3)c(O)c2)C1 [AB-120, N-(4-((3S,5R)-3,5-diaminopiperidin-1-yl)-2-hydroxyphenyl)benzamide]			0.1 percentage of the living fluorescent cells	12.3 percentage of the living fluorescent cells			94	90	55	144%	230%	215%		
COc1ccc(CN2C[C@H](N)C[C@H](N)C2)cc1 [AB-378, (3S,5R)-1-(4-methoxybenzyl)piperidine-3,5-diamine]			0.2 percentage of the living fluorescent cells	1.7 percentage of the living fluorescent cells			98	94	72	169%	199%	312%		
